{"source": "patent US20220143224A1", "about": "“MRI CONTRAST AGENT FOR USE IN THE DIAGNOSIS OF EARLY CHANGES IN THE ENDOTHELIUM OF BLOOD VESSELS” (UNIWERSYTET JAGIELLONSKI, priority 2019, published 2022)", "key": {"[1]": {"system": "abdominal aorta (AA) in ApoE/LDLR−/− mice", "assay": "MRI-based endothelium-dependent response to acetylcholine in abdominal aorta", "assay_type": "in vivo", "conditions": "for AA volume change: intraperitoneal Ach, 25 minutes after administration; for change in AA volume: paradoxical vasoconstriction", "method": "(§1) The experiments were performed using female ApoE/LDLR−/− mice of different ages: 4-, 6-, 8-, 12- and 28-week-old(19) in comparison to control young (8-week-old) mice (C57BL/6) without endothelial dysfunction. All mice (body weight 20-30 g) were housed under standard pathogen-free conditions (LD: 12/12, humidity: 60%, temperature: 23° C.).\n(§2) MRI experiments were carried out using a 9.4 T scanner (BioSpec 94/20 USR, Bruker, Germany). During the experiment, mice were anesthetized using isoflurane (Aerrane, Baxter Sp. z o.o., Poland, 1.5% by volume) in an oxygen and air mixture (1:2). Cardiac activity, respiration rate and body temperature (maintained at 37° C., using circulating warm water) were monitored using Monitoring and Gating System (SA Inc., Stony Brook, N.Y., USA). Mice were imaged in the supine position to test endothelial function and permeability in various blood vessels.\n(§3) Endothelium-dependent response to acetylcholine (Ach), expressed as changes in vessel volume, was assessed in the brachiocephalic artery (BCA) visible on the 3D image of the aortic arch (A) and in the abdominal aorta (AA) positioned on the sagittal view of the mouse (B). Assessment of vessel response to flow-mediated dilation (FMD), also expressed as changes in vessel volume, was performed in the femoral artery (FA), visible on the 3D image of the left hind limb (D). Pixels for which T1 had changed more than 50% after CA (Npx50) were marked in red on a representative cross-sectional image of blood vessels arising from the aortic arch (C).\nTo assess the sensitivity of endothelial dysfunction detection using the new contrast agent, being an invention, impaired endothelial function in ApoE/LDLR−/− mice was also assessed by other MRI-based techniques; detection of endothelium-dependent response to acetylcholine (FIG. 5) and measurement of increase in flow after short-term vessel occlusion (FMD, FIG. 6). As described in our recent publication(22), endothelium-dependent response to acetylcholine (Ach, FIG. 5B) in abdominal aorta (AA) is the most sensitive in vivo method to detect changes in endothelial phenotype. […]\nChanges in the end-diastolic volume of brachiocephalic artery (A: BCA-ACH) and abdominal aorta (B: AA-ACH) 25 minutes after administration of acetylcholine in ApoE/LDLR−/− mice (white columns) of different ages: 4-week-old ApoE/LDLR−/− mice, 6-week-old ApoE/LDLR−/− mice, 8-week-old ApoE/LDLR−/− mice, 12-week-old ApoE/LDLR−/− mice, 28-week-old ApoE/LDLR−/− mice as compared to 8-week-old control C57BL/6 mice, (C57_8W, n=4, black columns). Statistics: one-way ANOVA followed by Tukey's post hoc test (normality was assessed using the Shapiro-Wilk test); *p<0.05, **p<0.01, ***p<0.001."}, "[2]": {"system": "brachiocephalic artery (BCA) in ApoE/LDLR−/− mice", "assay": "MRI-based endothelium-dependent response to acetylcholine in brachiocephalic artery", "assay_type": "in vivo", "method": "as §1, §2, §3\nTo assess the sensitivity of endothelial dysfunction detection using the new contrast agent, being an invention, impaired endothelial function in ApoE/LDLR−/− mice was also assessed by other MRI-based techniques; detection of endothelium-dependent response to acetylcholine (FIG. 5) and measurement of increase in flow after short-term vessel occlusion (FMD, FIG. 6). […]"}}}
{"molecule": "CC(=O)OCC[N+](C)(C)C", "note": "[Ach, acetylcholine]", "values": [{"measurement": "AA volume change", "setting": "[1]; 4-week-old ApoE/LDLR−/− mice", "value": "about 23%"}, {"measurement": "change in AA volume", "setting": "[1]; 12-week-old ApoE/LDLR−/− mice", "value": "about −8%"}, {"measurement": "change in AA volume", "setting": "[1]; 28-week-old ApoE/LDLR−/− mice", "value": "~−23", "unit": "%"}, {"measurement": "AA volume change", "setting": "[1]; control mice (8-week-old C57BL/6)", "value": "about 34%"}, {"measurement": "changes in BCA volume", "setting": "[2]; 4 to 8-week-old ApoE/LDLR−/− mice", "value": "approximately 10%"}, {"measurement": "volume change in the BCA", "setting": "[2]; 8-week-old control mice (C57BL/6)", "value": 11.26, "unit": "%"}, {"measurement": "BCA volume changes", "setting": "[2]; 12-week-old ApoE/LDLR−/− mice", "value": "about 2%"}]}
